Laboratory results taken from publication PMC8466238, “Development of High Affinity Calcitonin Analog Fragments Targeting Extracellular Domains of Calcitonin Family Receptors” (Biomolecules, 2021).
Where two headings read alike, the source gives them in different places. One block for each molecule: values may come before it. Where a SMILES comes first, the peptide text is derived from it. Where no end group is shown, it is not given here. [ ]: non-standard residue; d: D form. The star is where a group is joined. FITC = O=C1OC2(c3ccc(O)cc3Oc3cc(O)ccc32)c2ccc(NC(=S)*)cc21; Hyp = O=C(O)[C@@H]1C[C@@H](O)CN1; Ahx = NCCCCCC(=O)O

Columns and labels:
[1] = biological target: T1, AMY receptor 2 ECD (RAMP2-CTR ECD fusion protein) (Homo sapiens, UniProt O60895+P30988); assay: FP competition peptide binding assay with AMY receptor 2 ECD, FITC-AC413(6–25) Y25P probe; details: Figure 5f; RAMP2-CTR ECD fusion protein 67 nM, FITC-AC413(6–25) Y25P 10 nM; mean ± SD of N = 3; read-out: pKI Mean ± SD (converted)
T1 construct: pHLsec/hRAMP2.55–140-(GSA)3-hCTR.34–141-H6 (H-pSL006); H6 (His6) (C); made in house; host or cells: HEK293T
Source text: (§1) The overall procedures of FP peptide binding assay with receptor ECDs and FITC-labeled peptide probes were previously described. […] A SpectraiD5 (Molecular Devices, San Jose, CA, USA) was used to measure fluorescence polarization/anisotropy. Background (reaction buffer only) was subtracted for anisotropy calculation. For the SpectraiD5, G factor (0.38 for FITC-sCT(22–32) and 0.41 for FITC-AC413(6–25) and FITC-AC413(6–25) Y25P) was used to correct the instrumental bias for anisotropy calculation. The polarization (mP) of the FITC-peptide probes only (No receptor ECD) was set close to 50 mP. For the saturation binding assay, the anisotropy values were re-calculated when total fluorescence intensity was changed by more than 10% as previously described. […] Anisotropy values were used to produce non-linear regression curves with PRISM 5.0 (GraphPad software, San Diego, CA, USA) as previously described. KI indicates affinity values obtained from competition binding assay and it was calculated from the non-linear regression curves of anisotropy by using equations previously described. Concentrations of the FITC-labeled peptide and the total receptor protein and the affinity of the FITC-labeled peptide for the receptor protein were incorporated into the equations for the KI calculation of the competitive peptide ligand. Two technical replicates were used for each receptor concentration in the peptide-binding curve. SEM of the anisotropy values of the two replicates at each receptor concentration were presented as error bars in the representative peptide-binding curves. When the error bars were shorter than the height of the symbol, they were omitted in the representative curves. At least three independent peptide binding experiments were performed to obtain three independent peptide-binding curves. Mean and standard deviation of peptide ligand affinity were calculated from them.

[2] = biological target: T2, AMY receptor 1 ECD (RAMP1-CTR ECD fusion protein) (Homo sapiens, UniProt O60894+P30988); assay: FP competition peptide binding assay with AMY receptor 1 ECD, FITC-AC413(6–25) Y25P probe; details: Figure 5e; RAMP1-CTR ECD fusion protein 77 nM, FITC-AC413(6–25) Y25P 10 nM; mean ± SD of N = 3; read-out: pKI Mean ± SD (converted)
T2 construct: pHLsec/hRAMP1.24–111-(GSA)3-hCTR.34–141-H6 (H-pSL005); H6 (His6) (C); made in house; host or cells: HEK293T
Source text: as §1

[3] = biological target: T3, CTR ECD (Homo sapiens, UniProt P30988); assay: FP competition peptide binding assay with purified CTR ECD, FITC-sCT(22–32) probe; details: CTR ECD 500 nM, FITC-sCT(22–32) 10 nM
T3 construct: pHLsec/hCTR.34–141-H6 (H-pSL003); H6 (His6) (C); made in house; host or cells: HEK293T
T3 sequence (P30988 34-141): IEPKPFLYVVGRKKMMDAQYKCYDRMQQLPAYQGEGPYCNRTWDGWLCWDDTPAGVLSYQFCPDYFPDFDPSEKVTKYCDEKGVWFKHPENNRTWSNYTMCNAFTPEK
Source text: as §1

[4] = biological target: T4, AMY receptor 3 ECD (RAMP3-CTR ECD fusion protein) (Homo sapiens, UniProt O60896+P30988); assay: FP competition peptide binding assay with AMY receptor 3 ECD, FITC-AC413(6–25) Y25P probe; details: Figure 5g; RAMP3-CTR ECD fusion protein 252 nM, FITC-AC413(6–25) Y25P 10 nM; mean ± SD of N = 3; read-out: pKI Mean ± SD (converted)
T4 construct: pHLsec/hRAMP3.25–112-(GSA)3-hCTR.34–141-H6 (H-pSL001); H6 (His6) (C); made in house; host or cells: HEK293S GnTI−
T4 sequence (O60896+P30988 with tags, fused parts or gaps): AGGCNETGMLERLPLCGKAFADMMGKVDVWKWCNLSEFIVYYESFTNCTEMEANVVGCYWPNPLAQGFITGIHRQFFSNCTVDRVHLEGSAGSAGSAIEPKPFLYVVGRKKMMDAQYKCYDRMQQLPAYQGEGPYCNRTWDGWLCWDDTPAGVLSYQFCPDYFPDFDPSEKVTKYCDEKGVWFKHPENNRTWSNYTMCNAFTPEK
Source text: as §1

[5] = test system: RAMP3-CTR ECD fusion protein; assay: FP peptide binding assay of FITC-labeled probes with CTR ECD alone and RAMP3-CTR ECD fusion protein (Figure S1D); design: species or system human; details: FP binding with rising receptor ECD concentration
Protocol: HEK293S GnTI^− cells were used to express the RAMP3-CTR ECD fusion protein. The general procedures of receptor ECD expression and purification from HEK293S GnTI^− cells were previously described. HEK293S GnTI^− cells were transiently transfected with the DNA expression vector (H-pSL001) using polyethylenimine (PEI) at 1:1.5 ratio (DNA:PEI, w/w). Transfected cells were incubated for 4 days at 37 °C. All protein purification was performed at 4 °C unless otherwise noted. Cell culture media were collected and dialyzed to dialysis buffer overnight. The next day, dialyzed cell culture media were loaded to IMAC chromatography. Peak fractions from IMAC chromatography were spin-concentrated (MWCO 10 kDa) and injected into SEC. […]
The overall procedures of FP peptide binding assay with receptor ECDs and FITC-labeled peptide probes were previously described. […] A SpectraiD5 (Molecular Devices, San Jose, CA, USA) was used to measure fluorescence polarization/anisotropy. […] For the saturation binding assay, the anisotropy values were re-calculated when total fluorescence intensity was changed by more than 10% as previously described. However, effects of fluorescence intensity changes on the affinity values (KI) obtained from the competition binding assay was reported to be minimum and re-calculation of anisotropy was not applied. […] Mean and standard deviation of peptide ligand affinity were calculated from them. […]

[6] = biological target: T5, FITC-labeled AC413(6–25) with Y25P mutation (Y25P (stands in the printed letters), FITC-(Ahx) (aminohexanoic acid) on the N-terminus; C-terminal amide); assay: fluorescence polarisation; saturation binding: FITC-labeled peptide probe (10 nM) with rising receptor ECD concentrations; receptor ECD concentration at half of the maximal anisotropy; details: both partners purified
T5 construct: residues 6-25 of AC413, an antagonistic amylin peptide analog, with Y25P; peptide probe of the FP assay with the AMY receptor ECDs; also called FITC-AC413(6–25) Y25P; source: synthetic peptide (Genscript, HPLC-purified)
T5 peptide: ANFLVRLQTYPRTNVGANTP

[7] = Figure 4b experiment set, mean ± SD of N = 3 (N = 4 for sCT(22–32)) independent experiments, read-out: pKI Mean ± SD (converted)
[8] = Figure 1d experiment set, mean ± SD of N = 3 independent experiments, pKI = –log10[KI] (M)

Molecule: {FITC-Ahx}-ANFLVRLQTYPRTNVGANTP-NH2 [FITC-AC413(6–25) Y25P, FITC-labeled AC413(6–25) with Y25P mutation, probe for AMY receptor ECDs]
affinity for the RAMP3-CTR ECD fusion protein compared to FITC-labeled AC413(6–25) [5]: great affinity increase

Molecule: {FITC-Ahx}-ANFLVRLQTYPRTNVGANTY-NH2 [FITC-AC413(6–25), FITC-labeled fragment of the antagonistic amylin analog AC413, peptide probe]
binding for the RAMP3-CTR ECD fusion protein over CTR ECD alone [5]: selective binding

B1: RAMP2-CTR ECD fusion protein (hRAMP2.55–140-(GSA)3-hCTR.34–141-H6) (receptor, human)
chain: GGTVKNYETAVQFCWNHYKDQMDPIEKDWCDWAMISRPYSTLRDCLEHFAELFDLGFPNPLAERIIFETHQIHFANCSLVQPTFSDGSAGSAGSAIEPKPFLYVVGRKKMMDAQYKCYDRMQQLPAYQGEGPYCNRTWDGWLCWDDTPAGVLSYQFCPDYFPDFDPSEKVTKYCDEKGVWFKHPENNRTWSNYTMCNAFTPEK
notes: human receptor activity-modifying protein 2 (RAMP2), extracellular domain, residues 55-140; linker, printed as (GSA)3; human calcitonin receptor (CTR), extracellular domain, residues 34-141; Secreted from a pHLsec-based vector; also called AMY receptor 2 ECD; RAMP2 ECD-CTR ECD fusion; source: HEK293T, transiently transfected, secreted to cell culture media, purified (IMAC, SEC)
receptor ECD concentration that produced a half of the maximal anisotropy with the peptide probe [6]: 67 nM

B2: RAMP1-CTR ECD fusion protein (hRAMP1.24–111-(GSA)3-hCTR.34–141-H6) (receptor, human)
chain: TTACQEANYGALLRELCLTQFQVDMEAVGETLWCDWGRTIRSYRELADCTWHMAEKLGCFWPNAEVDRFFLAVHGRYFRSCPISGRAVGSAGSAGSAIEPKPFLYVVGRKKMMDAQYKCYDRMQQLPAYQGEGPYCNRTWDGWLCWDDTPAGVLSYQFCPDYFPDFDPSEKVTKYCDEKGVWFKHPENNRTWSNYTMCNAFTPEK
notes: human receptor activity-modifying protein 1 (RAMP1), extracellular domain, residues 24-111; linker, printed as (GSA)3; human calcitonin receptor (CTR), extracellular domain, residues 34-141; Secreted from a pHLsec-based vector; also called AMY receptor 1 ECD; RAMP1 ECD-CTR ECD fusion; source: HEK293T, transiently transfected, secreted to cell culture media, purified (IMAC, SEC)
receptor ECD concentration that produced a half of the maximal anisotropy with the peptide probe [6]: 77 nM

The remaining lines, values ahead:

Ki [1]: 0.339 µM
Ki [2]: 0.123 µM
Ki [3, 7]: 9.55e-08 M
Ki [4]: 0.117 µM
Molecule: C[C@@H](O)[C@H](NC(=O)[C@H](CC(=O)O)NC(=O)[C@@H](NC(=O)[C@H](CCCNC(=N)N)NC(=O)[C@@H]1CCCN1C(=O)[C@@H](N)Cc1ccc(O)cc1)[C@@H](C)O)C(=O)NCC(=O)N1CCC[C@H]1C(=O)NCC(=O)N[C@H](C(=O)N1C[C@H](O)C[C@H]1C(N)=O)[C@@H](C)O [sCT(22–32) N26D/S29P/P32HYP] (H-YPRTDTGPGT[Hyp]-NH2)

Ki [1]: 1.41 µM
Ki [2]: 0.891 µM
Ki [3, 7]: 8.91e-07 M
Ki [4]: 1 µM
Molecule: C[C@@H](O)[C@H](NC(=O)[C@H](CC(N)=O)NC(=O)[C@@H](NC(=O)[C@H](CCCNC(=N)N)NC(=O)[C@@H]1CCCN1C(=O)[C@@H](N)Cc1ccc(O)cc1)[C@@H](C)O)C(=O)NCC(=O)N[C@@H](CO)C(=O)NCC(=O)N[C@H](C(=O)N1C[C@H](O)C[C@H]1C(N)=O)[C@@H](C)O [sCT(22–32) P32HYP] (H-YPRTNTGSGT[Hyp]-NH2)

Ki [1]: 0.468 µM
Ki [2]: 0.38 µM
Ki ([3]; Figure 3b experiment set, mean ± SD of N = 3 independent experiments, read-out: pKI Mean ± SD (converted)): 2.4e-07 M
Ki [3, 8]: 3.16e-07 M
Ki [4]: 0.331 µM
Molecule: YPRTDTGPGTP-NH2 [sCT(22–32) N26D/S29P]

Ki [1]: 2.82 µM
Ki [2]: 2.57 µM
Ki [3, 7]: 2.04e-06 M
Ki [3, 8]: 1.78e-06 M
Ki [4]: 2.57 µM
Molecule: YPRTNTGSGTP-NH2 [sCT(22–32), reference compound]

receptor ECD concentration that produced a half of the maximal anisotropy with the peptide probe [6]: 252 nM
B3: RAMP3-CTR ECD fusion protein (hRAMP3.25–112-(GSA)3-hCTR.34–141-H6) (receptor, human)
chain: T4 sequence (O60896+P30988 with tags, fused parts or gaps)
notes: human receptor activity-modifying protein 3 (RAMP3), extracellular domain, residues 25-112; linker, printed as (GSA)3; human calcitonin receptor (CTR), extracellular domain, residues 34-141; Secreted from a pHLsec-based vector; also called AMY receptor 3 ECD; RAMP3 ECD-CTR ECD fusion protein; source: HEK293S GnTI-, transiently transfected (PEI), secreted to cell culture media, purified (IMAC, SEC)
